Legend:
Type in all cases: biochemical
[1] = tested on: panel of eight glycosidases; assay: Glycosidase inhibition, whole panel of Table 7; conditions: 1 mg/mL aqueous solution added
Method: (§1) All enzymes and para-nitrophenyl substrates were purchased from Sigma. Enzymes were assayed at 27 °C in citric acid (0.1M)/disodium hydrogen phosphate (0.2 M) buffers at the optimum pH for the enzyme. The incubation mixture consisted of […] enzyme solution, […] of 1 mg/mL aqueous solution of extract, and […] of the appropriate 5 mM para-nitrophenyl substrate made up in buffer at the optimum pH for the enzyme. The reactions were stopped by the addition of […] 0.4 M glycine (pH 10.4) during the exponential phase of the reaction, which had been determined at the beginning using uninhibited assays in which water replaced the inhibitor. Final absorbances were read at 405 nm using a Versamax microplate reader (Molecular Devices). Assays were carried out in triplicate, and the values given are the means of the three replicates per assay. All reactions run in water.

[2] = tested on: N-acetyl-β-D-glucosaminidase (bovine kidney); assay: Glycosidase inhibition, Table 7; conditions: 1 mg/mL aqueous solution added, 27 °C, run in water
Method: as §1

[3] = tested on: α-D-glucosidase (Bacillus); assay: Glycosidase inhibition, Table 7; conditions: 1 mg/mL aqueous solution added, 27 °C, run in water
Method: as §1

[4] = target: T1, α-D-mannosidase (Jack bean) (Canavalia ensiformis, UniProt C0HJB3); assay: Glycosidase inhibition, Table 7; conditions: 1 mg/mL aqueous solution added, 27 °C, run in water; for inhibition at 1000 µg/mL (stock): read-out: α-D-Mannosidase Jack Bean, percentage inhibition
T1 construct: purchased Sigma
T1 sequence (C0HJB3 1-981): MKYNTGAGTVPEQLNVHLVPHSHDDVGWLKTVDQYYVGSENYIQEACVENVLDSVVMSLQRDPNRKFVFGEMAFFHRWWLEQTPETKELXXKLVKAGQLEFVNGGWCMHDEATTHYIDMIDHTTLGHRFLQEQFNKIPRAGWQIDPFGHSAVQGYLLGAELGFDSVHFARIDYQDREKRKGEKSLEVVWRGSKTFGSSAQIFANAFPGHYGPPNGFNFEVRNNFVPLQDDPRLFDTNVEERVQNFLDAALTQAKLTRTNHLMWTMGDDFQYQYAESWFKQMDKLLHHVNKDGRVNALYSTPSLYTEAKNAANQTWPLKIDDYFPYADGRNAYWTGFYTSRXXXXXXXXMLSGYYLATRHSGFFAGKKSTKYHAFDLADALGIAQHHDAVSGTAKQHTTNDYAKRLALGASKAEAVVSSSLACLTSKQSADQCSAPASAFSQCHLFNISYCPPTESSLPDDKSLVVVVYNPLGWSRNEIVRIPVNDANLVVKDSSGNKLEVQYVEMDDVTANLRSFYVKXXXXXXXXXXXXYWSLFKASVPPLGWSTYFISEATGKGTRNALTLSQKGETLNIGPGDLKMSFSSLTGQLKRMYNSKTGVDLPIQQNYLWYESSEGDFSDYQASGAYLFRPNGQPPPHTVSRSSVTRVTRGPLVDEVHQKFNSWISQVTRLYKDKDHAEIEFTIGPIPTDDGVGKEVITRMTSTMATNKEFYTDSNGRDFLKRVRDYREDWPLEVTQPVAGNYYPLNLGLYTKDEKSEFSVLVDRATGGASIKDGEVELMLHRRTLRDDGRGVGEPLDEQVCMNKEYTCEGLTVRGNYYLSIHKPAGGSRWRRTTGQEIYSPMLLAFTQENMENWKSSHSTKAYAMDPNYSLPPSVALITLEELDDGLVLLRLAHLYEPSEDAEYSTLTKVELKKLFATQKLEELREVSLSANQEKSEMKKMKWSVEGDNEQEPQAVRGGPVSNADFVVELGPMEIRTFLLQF
Method: as §1

[5] = target: α-D-glucosidase (human lysosome) (Homo sapiens, UniProt P10253); assay: Glycosidase inhibition, Table 6 footnote
[6] = tested on: α-D-glucosidase (rat intestine); assay: Glycosidase inhibition, Table 7; conditions: 1 mg/mL aqueous solution added, 27 °C, run in water
Method: as §1

[7] = tested on: N-acetyl-β-D-hexosaminidase (rat intestine); assay: Glycosidase inhibition, Table 7; conditions: 1 mg/mL aqueous solution added, 27 °C, run in water
Method: as §1

[8] = target: β-D-glucosidase (human lysosome) (Homo sapiens, UniProt P04062); assay: Glycosidase inhibition, Table 6 footnote
[9] = target: β-D-galactosidase (E. coli) (Escherichia coli, UniProt P00722); assay: Glycosidase inhibition, Table 6 footnote; conditions: read-out: β-D-galactosidase (E. coli), inhibition % at 100 μM
[10] = tested on: panel of 15 glycosidases; assay: Glycosidase inhibition, whole panel of Table 6; conditions: at 100 or 1000 μM
Source text: The enzymes α-D-glucosidase (from yeast), β-D-glucosidases (from almond and bovine liver), α-D-galactosidase (from coffee beans), β-D-galactosidase (from bovine liver), α-D-mannosidase (from Jack bean), β-D-mannosidase (from snail), α-L-rhamnosidase (from Penicillium decumbens), α-L-fucosidase (from bovine kidney), trehalase (from porcine kidney), β-D-glucuronidases (from E. coli and bovine liver), amyloglucosidase (from A. niger), para-nitrophenyl glycosides, and various disaccharides were purchased from Sigma-Aldrich Co. (St. Louis, MO, USA).
Brush border membranes were prepared from the rat small intestine according to the method of Kessler et al., and were assayed at pH 6.8 for rat intestinal maltase using maltose. For rat intestinal maltase, porcine kidney trehalase, and A. niger amyloglucosidase activities, the reaction mixture contained maltose (25 mM) and the appropriate amount of enzyme, and the incubations were performed for 10–30 min at 37 °C. The reaction was stopped by heating at 100 °C for 3 min. […] The absorbance at 505 nm was measured to determine the amount of the released D-glucose. Other glycosidase activities were determined using an appropriate para-nitrophenyl glycoside as substrate at the optimum pH of each enzyme. […] The released para-nitrophenol was measured spectrometrically at 400 nm. […]

β-D-glucosidase (human lysosome), sequence (P04062 40-536): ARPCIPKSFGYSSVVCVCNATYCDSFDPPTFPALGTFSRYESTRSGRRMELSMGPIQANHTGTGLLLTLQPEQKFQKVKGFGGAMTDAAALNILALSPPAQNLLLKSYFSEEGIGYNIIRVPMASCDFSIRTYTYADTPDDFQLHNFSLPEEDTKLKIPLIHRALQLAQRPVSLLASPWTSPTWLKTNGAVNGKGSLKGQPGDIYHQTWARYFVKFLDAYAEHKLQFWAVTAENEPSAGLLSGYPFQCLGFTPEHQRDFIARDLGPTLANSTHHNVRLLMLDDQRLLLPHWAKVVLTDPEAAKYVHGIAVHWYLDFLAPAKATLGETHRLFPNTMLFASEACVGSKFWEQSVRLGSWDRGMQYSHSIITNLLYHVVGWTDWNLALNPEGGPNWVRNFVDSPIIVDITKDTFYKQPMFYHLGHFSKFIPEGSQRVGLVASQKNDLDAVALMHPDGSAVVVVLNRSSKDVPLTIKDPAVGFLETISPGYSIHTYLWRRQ
β-D-galactosidase (E. coli), sequence (P00722 2-1024): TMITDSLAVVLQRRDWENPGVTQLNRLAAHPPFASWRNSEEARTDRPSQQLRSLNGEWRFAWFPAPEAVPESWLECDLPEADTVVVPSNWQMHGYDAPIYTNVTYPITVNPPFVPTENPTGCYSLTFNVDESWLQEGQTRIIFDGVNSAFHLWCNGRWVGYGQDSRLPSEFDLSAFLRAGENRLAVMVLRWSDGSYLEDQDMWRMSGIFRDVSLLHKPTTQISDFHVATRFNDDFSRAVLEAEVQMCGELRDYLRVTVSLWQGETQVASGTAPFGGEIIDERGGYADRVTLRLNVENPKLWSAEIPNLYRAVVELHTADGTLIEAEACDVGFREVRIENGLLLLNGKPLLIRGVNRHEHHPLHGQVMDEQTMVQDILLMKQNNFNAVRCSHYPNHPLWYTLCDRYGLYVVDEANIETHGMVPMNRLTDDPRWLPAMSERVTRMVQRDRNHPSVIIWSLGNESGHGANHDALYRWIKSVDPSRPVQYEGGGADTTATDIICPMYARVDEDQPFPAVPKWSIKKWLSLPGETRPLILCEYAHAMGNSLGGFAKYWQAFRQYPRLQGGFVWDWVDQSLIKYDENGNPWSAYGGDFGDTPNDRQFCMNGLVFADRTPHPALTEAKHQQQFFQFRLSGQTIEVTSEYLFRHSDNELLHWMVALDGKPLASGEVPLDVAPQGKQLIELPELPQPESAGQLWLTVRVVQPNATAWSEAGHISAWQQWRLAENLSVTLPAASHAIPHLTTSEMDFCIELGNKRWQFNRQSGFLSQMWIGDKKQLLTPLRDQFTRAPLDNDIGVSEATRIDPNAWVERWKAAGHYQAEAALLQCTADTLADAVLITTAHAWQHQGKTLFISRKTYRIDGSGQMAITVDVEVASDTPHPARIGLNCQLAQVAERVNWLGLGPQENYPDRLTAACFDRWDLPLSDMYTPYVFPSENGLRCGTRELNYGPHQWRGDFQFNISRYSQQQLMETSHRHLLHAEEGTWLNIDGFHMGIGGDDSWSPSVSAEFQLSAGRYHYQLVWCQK

Molecule	inhibitions across the panel (Table 7) [1]	N-Acetyl-β-D-glucosaminidase Bovine Kidney, percentage inhibition [2] [%]	α-D-Glucosidase Bacillus, percentage inhibition [3] [%]	inhibition at 1000 µg/mL (stock) [4] [%]	N-Acetyl-β-D-hexosaminidase Rat Intestine, percentage inhibition [7] [%]	other results
N[C@@H](Cc1ccc(B(O)O)cc1)C(=O)O [BPA, 4-borono-L-phenylalanine, reference compound]	below 30%	6.7	19.9	0.6		
CC1(C)O[C@H]2O[C@H]3[C@@H]([C@H]2O1)N(Cc1ccccc1)C[C@H]3O [Compound 3, N-Benzyl-3,6-dideoxy-3,6-imino-1,2-O-isopropylidene-α-D-gulofuranose]		−0.1	−43.2	-30.6		
OC1O[C@@H]2[C@H]([C@H]1O)N(Cc1ccccc1)C[C@H]2O (stereo partly drawn) [Compound 4, N-Benzyl-3,6-dideoxy-3,6-imino-D-gulofuranose]		−9.1	−37.9	-12.1		
OC[C@H](O)[C@@H]1[C@H](O)[C@H](O)CN1Cc1ccccc1 [Compound 5, N-Benzyl-1,4-dideoxy-1,4-imino-L-gulitol]					−1.5	inhibition at 100 µM [5]: 0%; α-D-Glucosidase Rat Intestine, percentage inhibition [6]: −1.3%; inhibition at 100 µM [8]: 2.91%; inhibition at 100 µM [9]: 0%; percent inhibitions in the panel (Table 6) [10]: do not provide a strong degree of inhibition
N[C@@H](Cc1ccc(B(O)O)cc1)C(=O)O [^10B-BPA, reference compound]	below 30%	6.3	19.5			α-D-Mannosidase Jack Bean, percentage inhibition [4]: −0.7%
CC1(C)O[C@H]2O[C@H]3[C@@H]([C@H]2O1)N(Cc1ccc(B2OC(C)(C)C(C)(C)O2)cc1)C[C@H]3O [para 6, N-(4-Methylphenylboronic acid pinacol ester)-3,6-dideoxy-3,6-imino-1,2-O-isopropylidene-α-D-gulofuranose]						percent inhibitions in the panel (Table 6) [10]: do not provide a strong degree of inhibition
OB(O)c1ccc(CN2CC(O)C3OC(O)C(O)C32)cc1 [para 7, N-(4-Methylphenylboronic acid)-3,6-dideoxy-3,6-imino-D-gulofuranose]					4.4	α-D-Glucosidase Rat Intestine, percentage inhibition [6]: −5.4%
OC[C@H](O)[C@@H]1[C@H](O)[C@H](O)CN1Cc1ccc(B(O)O)cc1 [para 8, N-(4-Methylphenylboronic acid)-1,4-dideoxy-1,4-imino-L-gulitol]					2.6	
borocaptate sodium [BSH, reference compound]	31.6–65.9%	37.1	48.1			α-D-Mannosidase Jack Bean, percentage inhibition [4]: −18.7%

— PMC12472391, “Borylated Five-Membered Ring Iminosugars: Synthesis, Spectroscopic Analysis, and Biological Evaluation for Glycosidase Inhibition and Anticancer Properties for Application in Boron Neutron Capture Therapy (BNCT)—Part 1” (Pharmaceuticals, 2025)
